Key:
[1] = target: T1, FGFR4 (Homo sapiens, UniProt P22455); test: Kinase panel screen; type: biochemical; conditions: Compound I and ATP 10 μM
T1 construct: purchased Upstate USA or Invitrogen (contract screening service)

[2] = target: T2, CSK (Homo sapiens, UniProt P41240); test: Kinase panel screen; type: biochemical; conditions: Compound I and ATP 10 μM
T2 construct: purchased Upstate USA or Invitrogen (commercial screening service)

[3] = target: EphA2 (Homo sapiens, UniProt P29317); test: Kinase panel screen; type: biochemical; conditions: Compound I and ATP 10 μM
[4] = target: T3, TAK1 (Homo sapiens, UniProt O43318); test: Kinase panel screen; type: biochemical; conditions: Compound I and ATP 10 μM
T3 construct: purchased Upstate USA or Invitrogen (contract screening service)
T3 sequence (O43318 1-303 limits assumed): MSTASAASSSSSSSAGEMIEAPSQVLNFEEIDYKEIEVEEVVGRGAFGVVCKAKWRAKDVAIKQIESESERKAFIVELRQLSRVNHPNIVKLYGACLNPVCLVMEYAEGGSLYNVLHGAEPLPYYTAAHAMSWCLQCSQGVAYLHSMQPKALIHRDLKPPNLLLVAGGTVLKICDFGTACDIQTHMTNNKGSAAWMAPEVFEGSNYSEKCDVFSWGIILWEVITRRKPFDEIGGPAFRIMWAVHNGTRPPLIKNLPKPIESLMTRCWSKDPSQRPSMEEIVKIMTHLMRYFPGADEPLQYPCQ

[5] = target: T4, PKCy (Homo sapiens, UniProt P05129); test: Kinase panel screen; type: biochemical; conditions: Compound I and ATP 10 μM
T4 construct: purchased Upstate USA or Invitrogen (commercial screening service)

[6] = target: T5, PKC8 (Homo sapiens, UniProt Q05655); test: Kinase panel screen; type: biochemical; conditions: Compound I and ATP 10 μM
T5 construct: purchased Upstate USA or Invitrogen (commercial screening service)
T5 sequence (Q05655 whole entry): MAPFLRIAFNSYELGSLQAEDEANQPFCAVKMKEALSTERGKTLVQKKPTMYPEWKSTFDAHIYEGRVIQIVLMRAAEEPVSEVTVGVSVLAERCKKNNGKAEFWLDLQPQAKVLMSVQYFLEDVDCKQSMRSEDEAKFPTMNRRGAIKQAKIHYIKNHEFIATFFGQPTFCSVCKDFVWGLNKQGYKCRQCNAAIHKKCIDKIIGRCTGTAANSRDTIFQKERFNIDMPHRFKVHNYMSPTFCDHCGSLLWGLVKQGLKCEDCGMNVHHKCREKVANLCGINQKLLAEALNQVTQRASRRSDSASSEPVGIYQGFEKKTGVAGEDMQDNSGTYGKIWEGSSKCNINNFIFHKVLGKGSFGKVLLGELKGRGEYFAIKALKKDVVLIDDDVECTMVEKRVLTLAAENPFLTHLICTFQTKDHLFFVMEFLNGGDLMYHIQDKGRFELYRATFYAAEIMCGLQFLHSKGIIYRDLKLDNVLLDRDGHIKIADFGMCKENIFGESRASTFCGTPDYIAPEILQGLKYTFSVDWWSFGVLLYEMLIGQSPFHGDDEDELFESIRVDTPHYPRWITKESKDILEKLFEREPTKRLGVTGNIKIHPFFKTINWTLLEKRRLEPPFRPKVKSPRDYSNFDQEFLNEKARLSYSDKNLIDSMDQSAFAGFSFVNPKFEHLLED

[7] = target: T6, ALK (Homo sapiens, UniProt Q9UM73); test: Kinase panel screen; type: biochemical; conditions: Compound I and ATP 10 μM
T6 construct: purchased Upstate USA or Invitrogen (contract screening service)

[8] = target: T7, CDK3 (Homo sapiens, UniProt Q00526); test: Kinase panel screen; type: biochemical; conditions: Compound I and ATP 10 μM
T7 construct: purchased Upstate USA or Invitrogen (commercial screening service)
T7 sequence (Q00526 whole entry): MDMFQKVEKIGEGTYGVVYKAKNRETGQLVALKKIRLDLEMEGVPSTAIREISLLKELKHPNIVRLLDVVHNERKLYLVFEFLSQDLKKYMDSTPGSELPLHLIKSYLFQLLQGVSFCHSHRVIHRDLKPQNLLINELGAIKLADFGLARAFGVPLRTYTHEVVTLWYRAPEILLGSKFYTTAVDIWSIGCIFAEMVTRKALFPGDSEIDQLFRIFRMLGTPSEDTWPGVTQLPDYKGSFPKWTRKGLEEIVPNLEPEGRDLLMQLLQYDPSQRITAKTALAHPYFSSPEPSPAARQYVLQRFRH
T7 sequence (P24864 whole entry partner): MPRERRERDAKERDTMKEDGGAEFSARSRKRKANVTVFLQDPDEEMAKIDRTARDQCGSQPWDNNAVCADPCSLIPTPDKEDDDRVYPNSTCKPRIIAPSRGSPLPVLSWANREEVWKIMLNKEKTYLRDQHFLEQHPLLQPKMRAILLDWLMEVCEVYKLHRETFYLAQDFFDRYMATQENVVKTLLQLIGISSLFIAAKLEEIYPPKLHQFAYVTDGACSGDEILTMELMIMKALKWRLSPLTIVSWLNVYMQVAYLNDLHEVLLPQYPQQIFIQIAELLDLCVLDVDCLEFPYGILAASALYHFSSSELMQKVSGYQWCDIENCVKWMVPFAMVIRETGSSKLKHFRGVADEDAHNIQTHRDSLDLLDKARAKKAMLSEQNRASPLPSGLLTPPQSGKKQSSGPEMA

[9] = target: T8, NEK7 (Homo sapiens, UniProt Q8TDX7); test: Kinase panel screen; type: biochemical; conditions: Compound I and ATP 10 μM
T8 construct: purchased Upstate USA or Invitrogen (commercial screening service)

[10] = target: T9, CaMKIV (Homo sapiens, UniProt Q16566); test: Kinase panel screen; type: biochemical; conditions: Compound I and ATP 10 μM
T9 construct: purchased Upstate USA or Invitrogen (commercial screening service)

[11] = target: T10, Fer (Homo sapiens, UniProt P16591); test: Kinase panel screen; type: biochemical; conditions: Compound I and ATP 10 μM
T10 construct: purchased Upstate USA or Invitrogen (contract screening service)
T10 sequence (P16591 whole entry): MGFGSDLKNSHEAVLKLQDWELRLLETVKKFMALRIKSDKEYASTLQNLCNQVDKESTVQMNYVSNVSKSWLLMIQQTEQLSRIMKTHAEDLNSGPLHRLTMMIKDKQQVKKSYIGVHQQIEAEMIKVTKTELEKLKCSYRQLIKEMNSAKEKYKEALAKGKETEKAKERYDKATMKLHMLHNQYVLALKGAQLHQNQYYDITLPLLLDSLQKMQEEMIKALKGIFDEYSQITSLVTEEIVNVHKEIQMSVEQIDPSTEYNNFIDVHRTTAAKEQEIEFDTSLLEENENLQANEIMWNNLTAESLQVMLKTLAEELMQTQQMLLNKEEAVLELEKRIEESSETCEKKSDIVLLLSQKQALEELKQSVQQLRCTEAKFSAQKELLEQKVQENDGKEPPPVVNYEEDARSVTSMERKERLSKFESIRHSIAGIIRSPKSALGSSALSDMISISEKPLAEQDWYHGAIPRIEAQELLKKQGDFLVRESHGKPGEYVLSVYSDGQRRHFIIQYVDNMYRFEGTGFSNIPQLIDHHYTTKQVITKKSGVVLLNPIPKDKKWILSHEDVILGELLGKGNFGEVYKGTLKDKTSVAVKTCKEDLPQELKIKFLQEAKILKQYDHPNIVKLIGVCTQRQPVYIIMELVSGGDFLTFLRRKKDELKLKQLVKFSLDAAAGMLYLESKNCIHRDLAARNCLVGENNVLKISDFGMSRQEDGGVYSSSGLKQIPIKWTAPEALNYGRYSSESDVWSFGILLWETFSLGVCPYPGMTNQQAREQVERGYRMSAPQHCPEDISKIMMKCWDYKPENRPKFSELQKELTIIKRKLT

[12] = target: MKK4 (Mus musculus, UniProt P47809); test: Kinase panel screen; type: biochemical; conditions: Compound I and ATP 10 μM
[13] = test system: AMPK; test: Kinase panel screen; type: biochemical, rat; conditions: Compound I and ATP 10 μM
[14] = target: T11, Arg (Homo sapiens, UniProt P42684); test: Kinase panel screen; type: biochemical; conditions: Compound I and ATP 10 μM
T11 construct: purchased Upstate USA or Invitrogen (contract screening service)

[15] = target: T12, MKK7b (Homo sapiens, UniProt O14733); test: Kinase panel screen; type: biochemical; conditions: Compound I and ATP 10 μM
T12 construct: purchased Upstate USA or Invitrogen (contract screening service)

[16] = target: T13, ROCK-II (Homo sapiens, UniProt O75116); test: Kinase panel screen; type: biochemical; conditions: Compound I and ATP 10 μM
T13 construct: purchased Upstate USA or Invitrogen (commercial screening service)

[17] = target: T14, PKCC, (Homo sapiens, UniProt Q05513); test: Kinase panel screen; type: biochemical; conditions: Compound I and ATP 10 μM
T14 construct: purchased Upstate USA or Invitrogen (commercial screening service)

[18] = target: T15, Axl (Homo sapiens, UniProt P30530); test: Kinase panel screen; type: biochemical; conditions: Compound I and ATP 10 μM
T15 construct: purchased Upstate USA or Invitrogen (contract screening service)
T15 sequence (P30530 26-894): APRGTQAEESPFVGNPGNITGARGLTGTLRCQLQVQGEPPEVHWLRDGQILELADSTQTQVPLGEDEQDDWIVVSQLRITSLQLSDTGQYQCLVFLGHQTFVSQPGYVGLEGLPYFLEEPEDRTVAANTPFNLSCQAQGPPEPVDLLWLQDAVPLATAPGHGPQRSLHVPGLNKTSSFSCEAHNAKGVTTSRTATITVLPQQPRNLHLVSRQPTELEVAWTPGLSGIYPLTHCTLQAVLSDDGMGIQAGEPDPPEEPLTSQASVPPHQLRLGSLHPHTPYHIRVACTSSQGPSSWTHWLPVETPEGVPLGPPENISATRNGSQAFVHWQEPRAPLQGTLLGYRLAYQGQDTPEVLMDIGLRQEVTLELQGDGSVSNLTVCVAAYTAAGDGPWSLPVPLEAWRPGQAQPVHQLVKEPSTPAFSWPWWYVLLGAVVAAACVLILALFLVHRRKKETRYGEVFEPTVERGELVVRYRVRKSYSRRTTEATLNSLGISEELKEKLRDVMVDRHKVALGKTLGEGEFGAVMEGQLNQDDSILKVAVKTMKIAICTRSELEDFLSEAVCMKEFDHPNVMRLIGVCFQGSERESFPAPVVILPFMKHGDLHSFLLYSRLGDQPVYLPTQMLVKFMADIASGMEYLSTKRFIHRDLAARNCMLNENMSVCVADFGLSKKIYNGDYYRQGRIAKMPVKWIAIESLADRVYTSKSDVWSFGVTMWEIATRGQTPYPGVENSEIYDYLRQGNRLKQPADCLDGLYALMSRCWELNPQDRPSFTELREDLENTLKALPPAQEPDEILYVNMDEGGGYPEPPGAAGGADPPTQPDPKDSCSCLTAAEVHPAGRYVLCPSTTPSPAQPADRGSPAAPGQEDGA

[19] = target: T16, Fgr (Homo sapiens, UniProt P09769); test: Kinase panel screen; type: biochemical; conditions: Compound I and ATP 10 μM
T16 construct: purchased Upstate USA or Invitrogen (contract screening service)

[20] = target: T17, MINK (Homo sapiens, UniProt Q8N4C8); test: Kinase panel screen; type: biochemical; conditions: Compound I and ATP 10 μM
T17 construct: purchased Upstate USA or Invitrogen (contract screening service)

[21] = target: T18, Lck (Homo sapiens, UniProt P06239); test: Kinase panel screen; type: biochemical; conditions: Compound I and ATP 10 μM
T18 construct: purchased Upstate USA or Invitrogen (contract screening service)

[22] = test system: ERK phosphorylation; test: VEGF-stimulated ERK phosphorylation in EC (Western blot); type: cell-based; conditions: 10 uM Compound I, EC with VEGF
Procedure: FIG. 3. Inhibition of cell proliferation and signaling. (a) EC were cultured in the presence of vehicle (DMSO) or PI3K inhibitors (all at 10 μM); cell proliferation was assessed either 24 (open bar), 48 (grey bar), or 72 h (black bar) later.
Western blots: Cell cultures were rinsed twice with PBS and then lysed using RIPA buffer (100 mM Tris, 150 mM NaCl, 2 mM CaCl2, 1% deoxycholic acid, 1% Triton X-100, 0.1% SDS, pH 7.5) containing PMSF (2 mM), NaF (500 mM), aprotinin (10 μg/ml), leupeptin (10 μg/ml) and vanadate (1 mM). Tissue samples were placed in ice-cold RIPA buffer and processed to lysates using a FastPrep homogenizer (QBiogene, Carlsbad, Calif.). Lysates were centrifuged at 15,000×g followed by assay for total protein using the bicinchoninic acid method (Pierce Biotechnology, Rockford, Ill.), then loaded at equal protein concentration onto gels for SDS-PAGE electrophoresis and Western blotting. For phosphorylated VE-cadherin detection blots were probed with primary antibody (Santa Cruz Biotechnology, Santa Cruz, Calif.) followed by a chemiluminescent detection system (Pierce Biotechnology). The same techniques were used to detect both phosphorylated and total ERK and Akt, except that primary antibodies were supplied by Cell Signaling Technology (Beverly, Mass.) and BD Biosciences (San Jose, Calif.), respectively.

[23] = target: T19, PKCpiI (Homo sapiens, UniProt P05771); test: Kinase panel screen; type: biochemical; conditions: Compound I and ATP 10 μM
T19 construct: purchased Upstate USA or Invitrogen (commercial screening service)

[24] = target: T20, CDK6 (Homo sapiens, UniProt Q00534); test: Kinase panel screen; type: biochemical; conditions: Compound I and ATP 10 μM
T20 construct: purchased Upstate USA or Invitrogen (contract screening service)

[25] = target: T21, PKCs (Homo sapiens, UniProt Q02156); test: Kinase panel screen; type: biochemical; conditions: Compound I and ATP 10 μM
T21 construct: purchased Upstate USA or Invitrogen (commercial screening service)
T21 sequence (Q02156 whole entry): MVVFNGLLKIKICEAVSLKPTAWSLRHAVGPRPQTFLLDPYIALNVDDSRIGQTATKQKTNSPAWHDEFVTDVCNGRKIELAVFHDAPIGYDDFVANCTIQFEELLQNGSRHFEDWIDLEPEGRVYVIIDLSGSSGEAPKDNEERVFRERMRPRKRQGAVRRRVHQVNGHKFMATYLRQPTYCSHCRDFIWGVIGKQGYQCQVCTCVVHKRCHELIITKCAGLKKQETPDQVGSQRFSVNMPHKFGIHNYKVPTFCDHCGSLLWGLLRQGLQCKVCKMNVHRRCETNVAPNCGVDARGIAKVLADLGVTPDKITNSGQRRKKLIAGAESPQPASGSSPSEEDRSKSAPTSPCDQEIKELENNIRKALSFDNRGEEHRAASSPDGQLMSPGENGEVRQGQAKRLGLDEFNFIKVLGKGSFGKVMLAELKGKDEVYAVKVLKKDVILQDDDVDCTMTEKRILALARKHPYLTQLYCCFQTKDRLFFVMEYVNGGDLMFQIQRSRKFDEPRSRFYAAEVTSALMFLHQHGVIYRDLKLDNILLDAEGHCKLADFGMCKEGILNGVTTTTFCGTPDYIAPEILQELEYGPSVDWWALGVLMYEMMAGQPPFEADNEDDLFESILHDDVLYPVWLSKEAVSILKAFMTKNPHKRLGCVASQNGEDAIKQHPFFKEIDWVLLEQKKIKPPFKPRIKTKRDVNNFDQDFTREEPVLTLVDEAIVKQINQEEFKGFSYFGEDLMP

Nc1nc(N)c2nc(-c3cccc(O)c3)c(-c3cccc(O)c3)nc2n1 [Compound I, 6,7-bis-(3-hydroxyphenyl)-pteridine-2,4-diamine]
Percent Control, FGFR4 [1]: 94%
Percent Control, CSK [2]: 114%
Percent Control, EphA2 [3]: 29%
Percent Control, TAK1 [4]: 65%
Percent Control, PKCy [5]: 75%
Percent Control, PKC8 [6]: 89%
Percent Control, ALK [7]: 48%
Percent Control, CDK3 [8]: 72%
Percent Control, NEK7 [9]: 99%
Percent Control, CaMKIV [10]: 87%
Percent Control, Fer [11]: 80%
Percent Control, MKK4 (m) [12]: 57%
Percent Control, AMPK (r) [13]: 88%
Percent Control, Arg [14]: 43%
Percent Control, MKK7b [15]: 79%
Percent Control, ROCK-II [16]: 81%
Percent Control, PKCC, [17]: 99%
Percent Control, Axl [18]: 76%
Percent Control, Fgr [19]: 72%
Percent Control, MINK [20]: 88%
Percent Control, Lck [21]: 52%
VEGF-stimulated ERK phosphorylation [22]: no influence
Percent Control, PKCpiI [23]: 80%
Percent Control, CDK6 [24]: 83%
Percent Control, PKCs [25]: 69%

Source: patent US7691858B2, “Kinase inhibitors and methods of use thereof” (TargeGen, Inc., priority 2006, dated 2010)
